From ChEMBL document CHEMBL1139047, “Design and synthesis of a novel class of furan-based molecules as potential 20S proteasome inhibitors” (Bioorg Med Chem Lett, 2007) come the findings set out here.

Test [1] in a line: Inhibition of chymotrypsin-like activity of 20S proteasome. The test is classed as subcellular, Homo sapiens.
For test [2], the system named is HepG2. Briefly: Antiproliferative activity against human HepG2 cells. In kind it is functional, cell-based.
Test [3] concerns HL-60. Briefly: Antiproliferative activity against human HL60 cells. The test is classed as functional, cell-based.
Test [4] in a line: Inhibition of peptidyl-glutamyl peptide hydrolase activity of 20S proteasome. The test is classed as subcellular, Homo sapiens.
Test [5] is described as follows: Inhibition of trypsin-like activity of 20S proteasome. In kind it is subcellular, Homo sapiens.

Compound `CC[C@@H](C)[C@H](NC(=O)[C@H](NCc1ccccc1)[C@H](O)[C@H](Cc1ccccc1)NC(=O)OC(C)(C)C)C(=O)c1ccco1` showed an IC50 in test [1] of over 100 µM.

In test [1], `CC[C@H](C)[C@H](NC(=O)[C@@H](NC(=O)[C@H](Cc1ccccc1)NC(=O)OC(C)(C)C)C(C)C)C(=O)c1ccco1` had an IC50 of over 100 µM.

In the case of `CC[C@@H](C)[C@H](NC(=O)[C@H](Nc1ccccc1)[C@H](O)[C@H](Cc1ccccc1)NC(=O)OC(C)(C)C)C(=O)c1ccco1`, the IC50 in test [1] is over 100 µM.

As to `CC(C)C[C@H](NC(=O)[C@H](Cc1ccccc1)NC(=O)[C@H](Cc1ccccc1)NC(=O)OC(C)(C)C)C(=O)c1ccco1`, the IC50 in test [2] was 34.2 µM; in test [1], 7.85 µM; in test [3] it was 37.1 µM; in test [4] it was over 100 µM; in test [5], over 100 µM.

Compound `CC(C)[C@H](NC(=O)[C@H](Nc1ccccc1)[C@H](O)[C@H](Cc1ccccc1)NC(=O)OC(C)(C)C)C(=O)c1ccco1` showed an IC50 in test [1] of over 100 µM.

Consider `CC(C)[C@H](NC(=O)[C@H](Cc1ccccc1)NC(=O)[C@H](Cc1ccccc1)NC(=O)OC(C)(C)C)C(=O)c1ccco1`, for which the IC50 in test [1] was over 100 µM.

Regarding `CC(C)C[C@H](NC(=O)[C@@H](NC(=O)[C@H](Cc1ccccc1)NC(=O)OC(C)(C)C)C(C)C)C(=O)c1ccco1`, the half-inhibitory concentration (IC50) in test [1] was over 100 µM.

`CC(C)[C@H](NC(=O)[C@H](Cc1ccccc1)NC(=O)OC(C)(C)C)C(=O)N[C@H](C(=O)c1ccco1)C(C)C` registered an IC50 in test [1] of over 100 µM.

Turning to `CC(C)C[C@H](NC(=O)[C@H](Cc1ccccc1)NC(=O)OC(C)(C)C)C(=O)N[C@@H](CC(C)C)C(=O)c1ccco1`, the half-inhibitory concentration (IC50) in test [1] is over 100 µM.

For the compound `CC[C@H](C)[C@H](NC(=O)[C@H](CC(C)C)NC(=O)[C@H](Cc1ccccc1)NC(=O)OC(C)(C)C)C(=O)c1ccco1`, the IC50 in test [1] is over 100 µM.

For the compound `CC(C)C[C@H](NC(=O)[C@H](NCc1ccccc1)[C@H](O)[C@H](Cc1ccccc1)NC(=O)OC(C)(C)C)C(=O)c1ccco1`, in test [1], the concentration for half-maximal inhibition (IC50) was over 100 µM.

With `CC[C@H](C)[C@H](NC(=O)[C@H](Cc1ccccc1)NC(=O)[C@H](Cc1ccccc1)NC(=O)OC(C)(C)C)C(=O)c1ccco1`, the IC50 in test [1] is over 100 µM.

For the compound `CC(C)[C@H](NC(=O)[C@H](NCc1ccccc1)[C@H](O)[C@H](Cc1ccccc1)NC(=O)OC(C)(C)C)C(=O)c1ccco1`, the IC50 in test [1] is over 100 µM.

Take `CC(C)C[C@H](NC(=O)[C@H](Nc1ccccc1)[C@H](O)[C@H](Cc1ccccc1)NC(=O)OC(C)(C)C)C(=O)c1ccco1`: the IC50 in test [1] is over 100 µM.

Take `CC(C)C[C@H](NC(=O)[C@H](Cc1ccccc1)NC(=O)OC(C)(C)C)C(=O)N[C@H](C(=O)c1ccco1)C(C)C`: the half-maximal inhibitory concentration (IC50) in test [1] is over 100 µM.

Usually IC50 stands for the point on the concentration scale where inhibition reaches its midpoint. A high value points to lower potency.
